Positions count from the first letter of the chain named.
How the values were obtained:
UCHL1 C90A = target: T1, UCHL1 C90A (Homo sapiens, UniProt P09936, C90A); assay: Mass spectrometry analysis of 34 adducts on UCHL1; type: binding
T1 construct: His (N); made in house
T1 sequence (P09936 1-223 C90A): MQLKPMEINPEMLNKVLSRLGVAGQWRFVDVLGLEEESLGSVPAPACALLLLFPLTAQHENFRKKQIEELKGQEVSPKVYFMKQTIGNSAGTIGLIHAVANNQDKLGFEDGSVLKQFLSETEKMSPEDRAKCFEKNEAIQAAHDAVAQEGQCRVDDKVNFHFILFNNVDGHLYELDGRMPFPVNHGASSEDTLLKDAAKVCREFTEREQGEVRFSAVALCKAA
Protocol: (§1) A common shortcoming to covalent inhibitors is that the reactive electrophilic groups may partake in non-specific labeling of off-target cysteines. To investigate if alternative cysteines are affected on UCHL1 we used analog 34 to confirm that the fluoromethylketone derivatives only conjugate Cys90. […] Additionally, samples were analyzed by mass spectrometry to increase sensitivity for detection of any non-Cys90 adducts. […]
(§2) Solutions containing 10 µM recombinant UCHL1^WT or UCHL1^C90A (from pET15b) (49 µL) was incubated with either 10 µM or 20 µM inhibitor for 3 h at room temperature in PBS starting block buffer (Thermo Scientific # 37538). To quench reaction, chilled acetone was added to the sample to achieve an overall 80% acetone solution. After overnight storage at −20 °C, suspension was centrifuged at 14,000× g at 4 °C for 15 min. Supernatant was discarded, and pellet was dried by vacuum centrifugation for 1 h. Pellet was reconstituted in 50/50 water/acetonitrile with 0.1% formic acid. 25 pmol per sample was analyzed by LC/MS (Agilent 1260 Infinity II with a ZORBAX Rapid Resolution High Definition 300Å Stable Bond C3, 2.1 × 100 mm, 1.8 µm column) attached to an Agilent 6129 quadrupole mass spectrometer in positive ion mode.
(§3) The column was held at 45 °C. Mobile solution A was 0.1% formic acid in water, and mobile phase B was 0.1% formic acid in acetonitrile. The gradient used was hold at 5% B for 5 min, increase linearly to […] for 10, and then hold at 95% B for 5 min. The mass data were collected at a range of 500–1000 m/z.
(§4) Raw data were processed using MestReNova. For all samples, the deconvoluted mass was calculated with a charged state range from 27 to 36, m/z range of 670–900 Da, and deconvoluted mass range from 25,000–26,000 Da. […] For C90A mutant, this abundance threshold was lowered to 5% to detect the presence of any reacted protein. 34 adduct is expected to be +486.00 Da after displacement of fluorine.

WT-UCHL1 = target: T2, WT-UCHL1 (Homo sapiens, UniProt P09936); assay: Mass spectrometry analysis of 34 adducts on UCHL1; type: binding; settings: WT-UCHL1 + 34 (1:1)
T2 construct: His (N); made in house
T2 sequence (P09936 1-223): T1 sequence (P09936 1-223 C90A) with A90C
Protocol: as §1, §2, §3, §4

Q: For `C#Cc1ccc(COC(=O)N[C@H](C(=O)N[C@@H](C)C(=O)N[C@@H](CCC(=O)OC)C(=O)CF)C(C)C)cc1` [Cpd 34], which “Adduct(s) Observed (Da)” value (UCHL1 C90A; UCHL1 C90A + 34 (1:1)) is on record?
A: none

Q: What about the “Adduct(s) Observed (Da)” value (UCHL1 C90A; UCHL1 C90A + 34 (1:2)) of the same compound?
A: no adducts observed and none

Q: And the “Adduct(s) Observed (Da)” value (WT-UCHL1)?
A: +486.00 Da

— paper PMC7956625, “Optimization and Anti-Cancer Properties of Fluoromethylketones as Covalent Inhibitors for Ubiquitin C-Terminal Hydrolase L1” (Molecules, 2021)
